Measured values as given in PMC8400257, “2-Phenoxy-3-Trichloromethylquinoxalines Are Antiplasmodial Derivatives with Activity against the Apicoplast of Plasmodium falciparum” (Pharmaceuticals, 2021).

How the values were obtained:
[1] = test system: P. falciparum ART-sensitive strain F32-TEM; experiment: Standard in vitro chemo-sensitivity assay, F32-TEM; format: cell-based; conditions: Plasmodium falciparum, F32, 48 h, read-out: Mean ± SEM EC50 values F32-TEM
Protocol: The Plasmodium falciparum ART-resistant strain F32-ART5 and its tween ART-sensitive strain F32-TEM [33, 41] were cultivated at 37 °C with 5% CO2 in human red blood cells (EFS, French Blood Bank) diluted to 2% hematocrit in RPMI-1640 medium (Biowest, Nuaillé, France) supplemented with 5% human serum (EFS, French Blood Bank), as previously reported.
The chemosensitivity assay was carried out in 96-well culture plates on synchronized ring-stage parasites at 1% parasitemia obtained after D-sorbitol treatment. The antiplasmodial activities were evaluated using the SYBR Green I method. Parasites were exposed for 48 h to a range of concentrations of the different tested compounds. Each drug concentration was tested in triplicates. Parasite pellets were then washed in 1× PBS prior to lysing red blood cells at −20 °C overnight. Then, the plates were thawed and 100 µL of each well were transferred into a black 96-well plate. Next, 100 µL per well of SYBR Green I (Thermo Fisher) diluted at a final concentration of 2× in lysis buffer (20 mM Tris base pH 7.5, 5 mM EDTA, 0.008% w/v saponin, 0.08% w/v Triton X-100) were added and left to incubate for 1 h at room temperature prior to reading the plates on BioTek FLx800 Microplate Fluorescence Reader (λexcitation = 485 nm, λemission = 528 nm). Relative EC50 values were determined using GraphPad Prism software.

[2] = test system: F32-ART5 and F32-TEM parasites; experiment: Recrudescence assay; format: cell-based, Plasmodium falciparum; conditions: 48 h exposure; 2.5 µM 3i or 18 µM ART; log-rank Mantel-Cox test
Protocol: Recrudescence assay was performed to evaluate the ability of the F32-ART5 parasites to survive drug exposure comparatively to the F32-TEM parasites. D-sorbitol synchronized ring-stages at 3% parasitemia (2% hematocrit) were exposed to drug for 48 h. After drug exposure, parasite cultures were washed with RPMI-1640 medium and replaced in normal drug-free culture conditions. The time to parasite recrudescence was determined as the time required to reach the 3% initial parasitemia. […] Each experiment was performed for F32-ART5 and F32-TEM and cultivated in parallel in the same conditions to generate paired results. This was carried out at least three times independently. A statistical analysis (log-rank Mantel–Cox test) was carried out on data thanks to a Kaplan–Meier survival analysis (using GraphPad Prism software) considering censored data.
Figure S48. 13C NMR spectrum of 2i in CDCl3, on a Bruker ARX 101 spectrometer
2. […]
3. Studying the effect of (3i) on the liver stage development of P. falciparum Cryopreserved primary human hepatocytes were seeded in 96 well plates with a pre-determined seeding dose that gave a single dense layer of attached hepatocytes. […]
The culture medium with or without drugs was refreshed every 48 hours and two independent plates were studied. […] Plates were subjected to quantification using an automated plate scanner. […]

[3] = test system: Plasmodium falciparum blood stage parasites; experiment: Growth assay over three life cycles (delayed death); format: cell-based; conditions: 0.2 µM; 48, 96, 144 h
Protocol: To determine the impact of (3i) on apicoplast biogenesis, parasites were treated for 48 h with 0.2 µM of (3i) or 0.2 µM of (2i) (a control of (3i) for which the active CCl3 was replaced by a methyl CH3 group) and compared to untreated parasites by immunofluorescence assay. […] In order to determine if the apicoplast is the main target of (3i), we performed a growth assay over three life cycles to assess a potential delayed death effect, one of the major signature for compounds affecting apicoplast. […] The second interpretation could be that, unlike chloramphenicol or doxycycline, which cause a delayed death phenotype on Plasmodium, (3i) could act like fosmidomycin or actinonin and cause a rapid death phenotype.
To observe a potential effect of delayed death of the molecule on the parasite, Plasmodium was maintained on three life cycles (48 h). […] Fluorescence from each well was measured with TECAN infinite M200 plate reader (excitation: 485 nm, emission: 538 nm and integration time: 1000 μs). […] A graph was obtained by performing the ration of the treated culture fluorescence intensity on the untreated culture fluorescence intensity (n = 3).

O=[N+]([O-])c1ccc(Oc2nc3ccccc3nc2C(Cl)(Cl)Cl)cc1 [3i, 2-(4-Nitrophenoxy)-3-trichloromethylquinoxaline]
EC50 [1]: 392 ± 34 nM | Recrudescence of F32-ART5 compared with F32-TEM after drug exposure [2]: faster recrudescence | Parasite growth over three life cycles (ratio treated/untreated) [3]: drastic reduction in the parasite growth within the first life cycle
